Data as given in PubChem BioAssay (NCI).
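1) Cells in 96-well plates. 2) Compound, 48 h, 5 concentrations. 3) Linear interpolation between surrounding doses. 4) Unreached endpoint = highest concentration. TGI is the concentration that stops growth completely.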

Tests used:
Assay in all cases: inhibition of tumour cell growth, NCI panel, 48 h
786-0 renal = tested on: 786-0 renal
A498 renal = tested on: A498 renal
A549 NSCLC = tested on: A549 NSCLC
ACHN renal = tested on: ACHN renal
BT-549 breast = tested on: BT-549 breast
CAKI-1 renal = tested on: CAKI-1 renal
CCRF-CEM leukemia = tested on: CCRF-CEM leukemia
COLO 205 colon = tested on: COLO 205 colon
DU-145 prostate = tested on: DU-145 prostate
EKVX NSCLC = tested on: EKVX NSCLC
HCC-2998 colon = tested on: HCC-2998 colon
HCT-116 colon = tested on: HCT-116 colon
HCT-15 colon = tested on: HCT-15 colon
HL-60(TB) leukemia = tested on: HL-60(TB) leukemia
HOP-62 NSCLC = tested on: HOP-62 NSCLC
HOP-92 NSCLC = tested on: HOP-92 NSCLC
HS 578T breast = tested on: HS 578T breast
HT29 colon = tested on: HT29 colon
IGROV1 ovarian = tested on: IGROV1 ovarian
KM12 colon = tested on: KM12 colon
LOX IMVI melanoma = tested on: LOX IMVI melanoma
M14 melanoma = tested on: M14 melanoma
MALME-3M melanoma = tested on: MALME-3M melanoma
MCF7 breast = tested on: MCF7 breast
MDA-MB-231 breast = tested on: MDA-MB-231 breast
MDA-MB-435 = tested on: MDA-MB-435
MDA-N = tested on: MDA-N
NCI-H226 lung = tested on: NCI-H226 lung
NCI-H23 lung = tested on: NCI-H23 lung
NCI-H460 lung = tested on: NCI-H460 lung
NCI-H522 lung = tested on: NCI-H522 lung
NCI/ADR-RES ovarian = tested on: NCI/ADR-RES ovarian
OVCAR-3 ovarian = tested on: OVCAR-3 ovarian
OVCAR-4 ovarian = tested on: OVCAR-4 ovarian
OVCAR-5 ovarian = tested on: OVCAR-5 ovarian
OVCAR-8 ovarian = tested on: OVCAR-8 ovarian
PC-3 prostate = tested on: PC-3 prostate
RXF 393 renal = tested on: RXF 393 renal
SF-268 CNS = tested on: SF-268 CNS
SF-295 CNS = tested on: SF-295 CNS
SK-MEL-2 melanoma = tested on: SK-MEL-2 melanoma
SK-MEL-28 melanoma = tested on: SK-MEL-28 melanoma
SK-MEL-5 melanoma = tested on: SK-MEL-5 melanoma
SK-OV-3 ovarian = tested on: SK-OV-3 ovarian
SN12C renal = tested on: SN12C renal
SNB-19 CNS = tested on: SNB-19 CNS
SNB-75 CNS = tested on: SNB-75 CNS
SW-620 colon = tested on: SW-620 colon
TK-10 renal = tested on: TK-10 renal
U251 CNS = tested on: U251 CNS
UACC-257 melanoma = tested on: UACC-257 melanoma
UACC-62 melanoma = tested on: UACC-62 melanoma
UO-31 renal = tested on: UO-31 renal
K-562 leukemia = tested on: K-562 leukemia
MOLT-4 leukemia = tested on: MOLT-4 leukemia
RPMI-8226 leukemia = tested on: RPMI-8226 leukemia
SF-539 CNS = tested on: SF-539 CNS
SR leukemia = tested on: SR leukemia
T-47D breast = tested on: T-47D breast

With `CC(C)CNCCc1ccccn1` the TGI (786-0 renal) was over 100 µM, the TGI (A498 renal) was over 100 µM and the TGI (A549 NSCLC) was over 100 µM. The TGI (ACHN renal) was over 100 µM, the TGI (BT-549 breast) was over 100 µM and the TGI (CAKI-1 renal) was over 100 µM. It also gave a TGI (CCRF-CEM leukemia) of over 100 µM, a TGI (COLO 205 colon) of over 100 µM and a TGI (DU-145 prostate) of over 100 µM. For the same compound, the TGI (EKVX NSCLC) was over 100 µM, the TGI (HCC-2998 colon) was over 100 µM and the TGI (HCT-116 colon) was over 100 µM. It also gave a TGI (HCT-15 colon) of over 100 µM, a TGI (HL-60(TB) leukemia) of over 100 µM and a TGI (HOP-62 NSCLC) of over 100 µM. The TGI (HOP-92 NSCLC) was over 100 µM, the TGI (HS 578T breast) was over 100 µM and the TGI (HT29 colon) was over 100 µM. The TGI (IGROV1 ovarian) was over 100 µM, the TGI (KM12 colon) was over 100 µM and the TGI (LOX IMVI melanoma) was over 100 µM. For the same compound, the TGI (M14 melanoma) was over 100 µM, the TGI (MALME-3M melanoma) was over 100 µM and the TGI (MCF7 breast) was over 100 µM. The TGI (MDA-MB-231 breast) was over 100 µM, the TGI (MDA-MB-435) was over 100 µM and the TGI (MDA-N) was over 100 µM. It also gave a TGI (NCI-H226 lung) of over 100 µM, a TGI (NCI-H23 lung) of over 100 µM and a TGI (NCI-H460 lung) of over 100 µM. It also gave a TGI (NCI-H522 lung) of over 100 µM, a TGI (NCI/ADR-RES ovarian) of over 100 µM and a TGI (OVCAR-3 ovarian) of over 100 µM. The TGI (OVCAR-4 ovarian) was over 100 µM, the TGI (OVCAR-5 ovarian) was over 100 µM and the TGI (OVCAR-8 ovarian) was over 100 µM. For the same compound, the TGI (PC-3 prostate) was over 100 µM, the TGI (RXF 393 renal) was over 100 µM and the TGI (SF-268 CNS) was over 100 µM. It also gave a TGI (SF-295 CNS) of over 100 µM, a TGI (SK-MEL-2 melanoma) of over 100 µM and a TGI (SK-MEL-28 melanoma) of over 100 µM. For the same compound, the TGI (SK-MEL-5 melanoma) was over 100 µM, the TGI (SK-OV-3 ovarian) was over 100 µM and the TGI (SN12C renal) was over 100 µM. It also gave a TGI (SNB-19 CNS) of over 100 µM, a TGI (SNB-75 CNS) of over 100 µM and a TGI (SW-620 colon) of over 100 µM. It also gave a TGI (TK-10 renal) of over 100 µM, a TGI (U251 CNS) of over 100 µM and a TGI (UACC-257 melanoma) of over 100 µM. The TGI (UACC-62 melanoma) was over 100 µM and the TGI (UO-31 renal) was over 100 µM.

`COc1ccc(NC(=O)C(C#N)=C(SC)SC)cc1` showed a TGI (786-0 renal) of over 100 µM, a TGI (A498 renal) of over 100 µM and a TGI (A549 NSCLC) of over 100 µM. For the same compound, the TGI (ACHN renal) was over 100 µM, the TGI (BT-549 breast) was over 100 µM and the TGI (CAKI-1 renal) was over 100 µM. It also gave a TGI (CCRF-CEM leukemia) of over 100 µM, a TGI (COLO 205 colon) of over 100 µM and a TGI (DU-145 prostate) of over 100 µM. For the same compound, the TGI (EKVX NSCLC) was over 100 µM, the TGI (HCC-2998 colon) was over 100 µM and the TGI (HCT-116 colon) was over 100 µM. For the same compound, the TGI (HCT-15 colon) was over 100 µM, the TGI (HL-60(TB) leukemia) was over 100 µM and the TGI (HOP-62 NSCLC) was over 100 µM. It also gave a TGI (HOP-92 NSCLC) of 55.6 µM, a TGI (HS 578T breast) of over 100 µM and a TGI (HT29 colon) of over 100 µM. For the same compound, the TGI (IGROV1 ovarian) was over 100 µM, the TGI (K-562 leukemia) was over 100 µM and the TGI (LOX IMVI melanoma) was over 100 µM. For the same compound, the TGI (M14 melanoma) was over 100 µM, the TGI (MALME-3M melanoma) was over 100 µM and the TGI (MCF7 breast) was over 100 µM. It also gave a TGI (MDA-MB-231 breast) of over 100 µM, a TGI (MDA-MB-435) of over 100 µM and a TGI (MDA-N) of over 100 µM. For the same compound, the TGI (MOLT-4 leukemia) was over 100 µM, the TGI (NCI-H226 lung) was over 100 µM and the TGI (NCI-H23 lung) was over 100 µM. For the same compound, the TGI (NCI-H460 lung) was over 100 µM, the TGI (NCI-H522 lung) was over 100 µM and the TGI (OVCAR-3 ovarian) was over 100 µM. The TGI (OVCAR-4 ovarian) was over 100 µM, the TGI (OVCAR-5 ovarian) was over 100 µM and the TGI (PC-3 prostate) was over 100 µM. The TGI (RPMI-8226 leukemia) was over 100 µM, the TGI (RXF 393 renal) was over 100 µM and the TGI (SF-268 CNS) was over 100 µM. The TGI (SF-295 CNS) was over 100 µM, the TGI (SF-539 CNS) was over 100 µM and the TGI (SK-MEL-2 melanoma) was over 100 µM. For the same compound, the TGI (SK-MEL-28 melanoma) was over 100 µM, the TGI (SK-MEL-5 melanoma) was over 100 µM and the TGI (SK-OV-3 ovarian) was over 100 µM. It also gave a TGI (SN12C renal) of over 100 µM, a TGI (SNB-19 CNS) of over 100 µM and a TGI (SR leukemia) of over 100 µM. For the same compound, the TGI (SW-620 colon) was over 100 µM, the TGI (T-47D breast) was over 100 µM and the TGI (TK-10 renal) was over 100 µM. It also gave a TGI (U251 CNS) of over 100 µM, a TGI (UACC-257 melanoma) of over 100 µM and a TGI (UACC-62 melanoma) of over 100 µM. It also gave a TGI (UO-31 renal) of over 100 µM.
